The source of these data is patent publication US6030960A, “Method of treating hepatitis virus infections” (priority 1998, dated 2000).

≈ marks a conversion by molar mass, not a printed value. Where “and” joins values, the source holds several entries; their conditions need not be identical. Equal values may be shown once. Entries after “also recorded” stand apart in the source; their conditions may differ.

Data set [1] concerns Hepatitis B virus. Put plainly: Anti-hepatitis B virus activity in HEP-G2 cells persistently infected with HBV (Table 2). It is filed as cell-based. The settings on record: for activity at 10 µM: Hepatitis B virus, HepG2, 216 h. The procedure:
HEP-G2 cells persistently infected with HBV were treated daily with fresh D-MEM containing 20% FBS and 10 μM compound. After 9 days incubation and treatment, the overlay medium was harvested to assay the quantity of Hepatitis B virus s antigen (HBsAg) and HBeAg by EIA (Abbott Laboratories). The overlay medium was diluted to levels of antigen in the linear range of the assay. Standard curves using dilutions of positive HBsAg and HBeAg controls were included in each assay. Virion DNA was assayed using the method set forth in Korba and Gerin, Antiviral Res., 19, 5,5-70 (1992), incorporated by reference herein. HBV DNA was extracted from the overlay medium containing virus particles and analyzed by a slot-blot hybridization technique using ^32 P-labelled 3.2 Kb Eco R1 HBV DNA fragment by comparisons to HBV standards present on nitrocellulose filters using an AMBIS beta scanner. EC90 values (90% effective concentration, i.e., drug concentration which induces a 90% decrease in the levels of HBV DNA replication intermediates in treated versus control cells) were calculated by linear regression analysis. The relative levels of HBsAg, HBeAg and virion DNA were calulated as a percentage of the average levels obtained from the untreated controls.

Data set [2] can be described thus: Cytotoxicity of alkyl lipids, neutral red dye uptake (Table 1). It is filed as cell-based. The settings on record: human, hep-g2 cells. An excerpt:
Initially, evaluations of the alkyl lipids were done to determine whether the compounds were cytotoxic to the cells at concentrations having anti-HBV activity. The assay methodology is szt forth in Korba and Germ, Antiviral Res., 19, 55-70 (1992), incorporated by reference herein. Briefly, these cell cytotoxicity evaluations were done in 96-well plates seeded with HEP-G2 cell monolayers. The hepatoblastoma cell line HEP-G2 transfected with a plasmid carrying the gene that confers resistance to […] and four 5'-3' tandem copies of the Hepatitis B virus genome was obtained from Dr. George Acs. Proc. Natl. Acad. Sci. USA, 84, 1005-1009 (1987). Serial concentrations of compound were added to the RPMI-1640 growth medium and the growth medium was added to the 96-well plates containing the cell monolayers. The cells were incubated for a total of nine days at 37° C. The compound-containing medium was periodically replaced. Each compound was tested at four serial concentrations in triplicate. After nine days of treatment and incubation, 0.01% neutral red dye (Sigma, Inc.) was added to the overlay medium. Cell cytotoxicity was quantitated by measuring the average A510. Values in Table 1 represent the percentage of average A510 values (±standard deviation) relative to nine non-treated control wells.

Data set [3] in a line: Cytotoxicity in HBV persistently infected human HEP G2 cells, neutral red dye uptake (Table 5). It is filed as cell-based. To be noted: human, hep-g2 cells, % of Control Neutral Red Dye Uptake. The gist of the method:
(§1)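 HBV-transfected HEP-G2 monolayers in RPMI-1640 were given compound at four serial concentrations in triplicate for nine days at 37 °C, with periodic medium replacement. Toxicity from 0.01% neutral red uptake (A510), as percent of nine untreated control wells on the same plate.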

The subject of data set [4] is HEP G2 cells persistently infected with HBV. The description is as above. It is filed as cell-based. The gist of the method: as §1
In data set [5] the test system is Hepatitis B virus. As to the kind of experiment: Effect of alkyl lipids on HBV replication in HBV persistently infected human HEP G2 cells (Table 6). The class given is cell-based. The settings on record: for Intracellular HBV DNA, Mono (episomal 3.2-3.8 Kb HBV genomes) / Intracellular HBV DNA, RI (replication intermediates): nine days. The method, boiled down: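 Persistently HBV-infected HepG2 cells exposed to compound for nine days at 37 °C, intracellular HBV DNA analysed 24 h after day nine. Episomal 3.2-3.8 Kb genomes and replication intermediates normalized to integrated HBV DNA; virion DNA detection cut-off 0.1 pg DNA/ml culture medium.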

Data set [6] has as its system Hepatitis B virus. Put plainly: Effect on synthesis of antigen markers in persistently infected human HEP G2 cell cultures (Table 7). It is filed as cell-based. The settings on record: for activity at 10 µM: Hepatitis B virus, HepG2, 216 h. The gist of the method: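 Persistently infected HepG2 cells treated with compound for nine days at 37° C. Culture medium then harvested: HBsAg and HBeAg quantified by EIA, virion DNA by hybridisation-based DNA measurement. Sensitivity cut-off 0.1 pg DNA/ml medium.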

The subject of data set [7] is granulocyte/macrophage (CFU-GM). Put plainly: Cytotoxicity: inhibition of mouse granulocyte/macrophage (CFU-GM) colony formation. The class given is cell-based. To be noted: read-out: inhibitory concentration 50% for colony formation (IC50). The procedure:
CP-51 and AZT were assayed for cytotoxicity by inhibition of mouse precursor erythrocyte (CFU-E) and granulocyte/macrophage (CFU-GM) cell colony formation. Mouse bone marrow precursor cells were suspended in soft-agar-RPMI-1640 medium supplmented with cell growth factors and serial concentrations of alkyl lipid.

For a further data set, the system named is Friend-Leukemia virus. Put plainly: Inhibition of retrovirus-induced splenomegaly in Friend-Leukemia virus infected mice (Table 9). It is filed as in vivo. As for the experimental part: Mice were infected I.P. with Friend-Leukemia virus and not treated or treated I.P. with daily doses of phospholipid. After 14 days infection and treatment, the mice were sacrificed, the spleens were removed and weighed to determine the percentage, of control splenomegaly. […] Even a single dose of 25 mg/kg CP-51 inhibited splenomegaly by 36%.

Data set [8] concerns mouse precursor erythrocyte (CFU-E). Put plainly: Cytotoxicity: inhibition of mouse precursor erythrocyte (CFU-E) colony formation. To be noted: Mus musculus, Erythrocyte, read-out: inhibitory concentration 50% for colony formation (IC50). It is filed as cell-based. The procedure: CP-51 and AZT were assayed for cytotoxicity by inhibition of mouse precursor erythrocyte (CFU-E) and granulocyte/macrophage (CFU-GM) cell colony formation.

With `CCCCCCCCCCCCCCCC(=O)NCC(COP(=O)([O-])OCC[N+](C)(C)C)OCC` (racemic) [CP-49, rac-3-hexadecanamido-2-ethoxy-1-propylphosphocholine], the “activity against HBV-induced virion DNA and HBeAg syntheses” value with Hepatitis B virus [1] (10 μM, in words) was “potent inhibitory activity”. For the same compound, the activity at 10 µM was determined as 30% with Hepatitis B virus [1] (read-out: Relative Level of HBeAg); 115% with Hepatitis B virus [1] (read-out: Relative Level of HBsAg); 1% with Hepatitis B virus [1] (read-out: Relative Level of Virion DNA); 33% with Hepatitis B virus [6] (read-out: Relative Level of HBeAg, 10 μM, nine days); 116% in the data set with Hepatitis B virus [6] (read-out: Relative Level of HBsAg, 10 μM, nine days); 1% in the data set with Hepatitis B virus [6] (read-out: Relative Level of Virion DNA, 10 μM, nine days). The viability at 216 h, 3 µM is 99 ± 3% in [2] (3 μM, nine days, read-out: % of Control Neutral Red Dye Uptake) and 99 ± 3% in [3]. Further, the viability at 216 h, 10 µM is 99 ± 4% in [2] (10 μM, nine days, read-out: % of Control Neutral Red Dye Uptake) and 97 ± 2% in data set [3]. In [2] (30 μM, nine days, read-out: % of Control Neutral Red Dye Uptake), the viability at 216 h, 30 µM was found to be 60 ± 4%. In addition, the cytotoxicity at 216 h, 30 µM in data set [2] (30 μM, read-out: inhibition of neutral red dye uptake) came to 40%. Besides, the viability at 216 h, 100 µM in [2] (100 μM, nine days, read-out: % of Control Neutral Red Dye Uptake) came to 29 ± 1%; in data set [3], 45 ± 4%. Also, the “Cell toxicity (greater than 50% depression of dye uptake)” value in data set [4] (at concentrations with strong or moderate antiviral activity) is on record as “did not occur”. Besides, in data set [4] (human, hep-g2 cells, 216 h, 100 µM), the “% of Control Neutral Red Dye Uptake” value is on record as 29 ± 1 % of Control. The “HBV Virion DNA” value in the data set with Hepatitis B virus [5] (0.1 μM, Day 0) was 71 pg/ml Culture Medium and 55 pg/ml Culture Medium and 72 pg/ml Culture Medium and 62 pg/ml Culture Medium; with Hepatitis B virus [5] (0.1 μM, Day 3) it was 72 pg/ml Culture Medium and 56 pg/ml Culture Medium and 88 pg/ml Culture Medium and 75 pg/ml Culture Medium; with Hepatitis B virus [5] (0.1 μM, Day 6), 62 pg/ml Culture Medium and 69 pg/ml Culture Medium and 55 pg/ml Culture Medium; in the data set with Hepatitis B virus [5] (0.1 μM, Day 9), 75 pg/ml Culture Medium and 65 pg/ml Culture Medium and 77 pg/ml Culture Medium and 57 pg/ml Culture Medium; in the data set on Hepatitis B virus [5] (1 μM, Day 0), 56 pg/ml Culture Medium and 51 pg/ml Culture Medium and 66 pg/ml Culture Medium and 79 pg/ml Culture Medium; in the data set with Hepatitis B virus [5] (1 μM, Day 3), 56 pg/ml Culture Medium and 58 pg/ml Culture Medium and 60 pg/ml Culture Medium and 68 pg/ml Culture Medium. Moreover, the “HBV Virion DNA” value in the data set on Hepatitis B virus [5] (1 μM, Day 6) was 38 pg/ml Culture Medium and 41 pg/ml Culture Medium and 43 pg/ml Culture Medium and 44 pg/ml Culture Medium; in the data set with Hepatitis B virus [5] (1 μM, Day 9) it was 10 pg/ml Culture Medium and 13 pg/ml Culture Medium and 11 pg/ml Culture Medium and 18 pg/ml Culture Medium; in the data set with Hepatitis B virus [5] (10 μM, Day 0) it was 73 pg/ml Culture Medium and 53 pg/ml Culture Medium and 56 pg/ml Culture Medium and 77 pg/ml Culture Medium; in the data set with Hepatitis B virus [5] (10 μM, Day 3), 49 pg/ml Culture Medium and 55 pg/ml Culture Medium and 57 pg/ml Culture Medium and 50 pg/ml Culture Medium; in the data set with Hepatitis B virus [5] (10 μM, Day 6) it was 21 pg/ml Culture Medium and 22 pg/ml Culture Medium and 19 pg/ml Culture Medium and 24 pg/ml Culture Medium. Also, the “Intracellular HBV DNA, Mono (episomal 3.2-3.8 Kb HBV genomes)” value in the data set on Hepatitis B virus [5] (0.1 μM) is 2.2 pg/μg Cell DNA and 2.3 pg/μg Cell DNA and 2.5 pg/μg Cell DNA and 2.6 pg/μg Cell DNA; with Hepatitis B virus [5] (1 μM), 2.3 pg/μg Cell DNA and 2.4 pg/μg Cell DNA and 2.2 pg/μg Cell DNA and 2.1 pg/μg Cell DNA; with Hepatitis B virus [5] (10 μM), 2.6 pg/μg Cell DNA and 2.4 pg/μg Cell DNA and 2.2 pg/μg Cell DNA and 2.7 pg/μg Cell DNA. The “Intracellular HBV DNA, RI (replication intermediates)” value is 60 pg/μg Cell DNA and 61 pg/μg Cell DNA and 74 pg/μg Cell DNA and 79 pg/μg Cell DNA in the data set with Hepatitis B virus [5] (0.1 μM); 24 pg/μg Cell DNA and 20 pg/μg Cell DNA and 25 pg/μg Cell DNA and 30 pg/μg Cell DNA with Hepatitis B virus [5] (1 μM); 9 pg/μg Cell DNA and 8 pg/μg Cell DNA and 6 pg/μg Cell DNA with Hepatitis B virus [5] (10 μM). In addition, in the data set with Hepatitis B virus [5] (in words, versus ddC), the “inhibition of HBV virion DNA and intracellular HBV RI DNA levels” value is given as “markedly inhibited; also recorded: substantially inhibited”. Further, in the data set on Hepatitis B virus [6] (10 μM, nine days, 12960 min), the “Relative Level of HBeAg” value is recorded as 26 % of Untreated Control. In addition, the “Relative Level of HBsAg” value with Hepatitis B virus [6] (10 μM, nine days, 12960 min) is recorded as 113 % of Untreated Control. In the data set on Hepatitis B virus [6] (10 μM, nine days, 12960 min), the “Relative Level of Virion DNA” value was 1 % of Untreated Control. Also, the “effect on HBsAg levels released into the culture medium” value in the data set with Hepatitis B virus [6] (in words) is recorded as “None of the compounds tested”. The “reduction in HBeAg and virion DNA levels” value with Hepatitis B virus [6] (in words) was “caused a reduction; also recorded: most active compounds in suppressing HBeAg and virion DNA levels”.

As to `Cc1cn([C@H]2C[C@H](N=[N+]=[N-])[C@@H](CO)O2)c(=O)[nH]c1=O` [AZT, 3'-azido-3'deoxythymidine, reference compound], the results for the IC50 in [7] and in data set [8] were 0.27 µg/mL (≈ 1.01 µM) and 0.43 µg/mL (≈ 1.61 µM), respectively. Besides, in the data set with Friend-Leukemia virus (12.5 mg/kg/day intraperitoneally), the “inhibition of retrovirus-induced splenomegaly” value is 10%. The “% of Control Splenomegaly” value with Friend-Leukemia virus (12.5 mg/kg/day, daily treatment) is 10 % of Control.
